From PubChem BioAssay (NCI)
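A five-concentration, 48-hour dose response in 96-well plates underlies each endpoint, interpolated linearly between surrounding concentrations. The concentration for 50% growth inhibition is given as GI50. TGI: concentration producing complete growth inhibition.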

Assays:
Test in all cases: inhibition of tumour cell growth, NCI panel, 48 h
[1] = tested on: 786-0 renal
[2] = tested on: A498 renal
[3] = tested on: A549 NSCLC
[4] = tested on: ACHN renal
[5] = tested on: BT-549 breast
[6] = tested on: CAKI-1 renal
[7] = tested on: CCRF-CEM leukemia
[8] = tested on: COLO 205 colon
[9] = tested on: DU-145 prostate
[10] = tested on: EKVX NSCLC
[11] = tested on: HCC-2998 colon
[12] = tested on: HCT-116 colon
[13] = tested on: HCT-15 colon
[14] = tested on: HL-60(TB) leukemia
[15] = tested on: HOP-62 NSCLC
[16] = tested on: HOP-92 NSCLC
[17] = tested on: HS 578T breast
[18] = tested on: HT29 colon
[19] = tested on: IGROV1 ovarian
[20] = tested on: K-562 leukemia
[21] = tested on: KM12 colon
[22] = tested on: LOX IMVI melanoma
[23] = tested on: M14 melanoma
[24] = tested on: MALME-3M melanoma
[25] = tested on: MCF7 breast
[26] = tested on: MDA-MB-231 breast
[27] = tested on: MDA-MB-435
[28] = tested on: MOLT-4 leukemia
[29] = tested on: NCI-H226 lung
[30] = tested on: NCI-H23 lung
[31] = tested on: NCI-H460 lung
[32] = tested on: NCI-H522 lung
[33] = tested on: NCI/ADR-RES ovarian
[34] = tested on: OVCAR-3 ovarian
[35] = tested on: OVCAR-4 ovarian
[36] = tested on: OVCAR-5 ovarian
[37] = tested on: OVCAR-8 ovarian
[38] = tested on: PC-3 prostate
[39] = tested on: RPMI-8226 leukemia
[40] = tested on: RXF 393 renal
[41] = tested on: SF-268 CNS
[42] = tested on: SF-295 CNS
[43] = tested on: SF-539 CNS
[44] = tested on: SK-MEL-2 melanoma
[45] = tested on: SK-MEL-28 melanoma
[46] = tested on: SK-MEL-5 melanoma
[47] = tested on: SK-OV-3 ovarian
[48] = tested on: SN12C renal
[49] = tested on: SNB-19 CNS
[50] = tested on: SNB-75 CNS
[51] = tested on: SR leukemia
[52] = tested on: SW-620 colon
[53] = tested on: T-47D breast
[54] = tested on: TK-10 renal
[55] = tested on: U251 CNS
[56] = tested on: UACC-257 melanoma
[57] = tested on: UACC-62 melanoma
[58] = tested on: UO-31 renal

With COc1cccc(CCC2CCCN(c3cc(C)nc(N)n3)C2)c1 (configuration not stated) the GI50 [1] was 0.526 µM, the TGI [1] was 11.9 µM and the GI50 [2] was 0.288 µM. For the same molecule, the TGI [2] was 2.51 µM, the GI50 [3] was 0.722 µM and the TGI [3] was 15.2 µM. For the same molecule, the GI50 [4] was 0.625 µM, the TGI [4] was 14.1 µM and the GI50 [5] was 0.69 µM. For the same molecule, the TGI [5] was 13.5 µM, the GI50 [6] was 0.385 µM and the TGI [6] was 13.4 µM. The GI50 [7] was 0.34 µM, the TGI [7] was 22.2 µM and the GI50 [8] was 0.313 µM. It also gave a TGI [8] of 1.06 µM, a GI50 [9] of 0.326 µM and a TGI [9] of 11.2 µM. It also gave a GI50 [10] of 0.558 µM, a TGI [10] of 27.7 µM and a GI50 [11] of 1.54 µM. For the same molecule, the TGI [11] was 7.52 µM, the GI50 [12] was 0.484 µM and the TGI [12] was 11 µM. It also gave a GI50 [13] of 0.418 µM, a TGI [13] of 12.3 µM and a GI50 [14] of 0.251 µM. It also gave a TGI [14] of 0.686 µM, a GI50 [15] of 0.434 µM and a TGI [15] of 6.43 µM. For the same molecule, the GI50 [16] was 0.519 µM, the TGI [16] was 11.6 µM and the GI50 [17] was 0.418 µM. For the same molecule, the TGI [17] was 16.7 µM, the GI50 [18] was 0.28 µM and the TGI [18] was 1.49 µM. It also gave a GI50 [19] of 0.666 µM, a TGI [19] of 12.8 µM and a GI50 [20] of 0.259 µM. The TGI [20] was 10.6 µM, the GI50 [21] was 0.315 µM and the TGI [21] was 12.4 µM. For the same molecule, the GI50 [22] was 0.609 µM, the TGI [22] was 7.65 µM and the GI50 [23] was 0.302 µM. For the same molecule, the TGI [23] was 2.6 µM, the GI50 [24] was 0.527 µM and the TGI [24] was 14.9 µM. The GI50 [25] was 0.292 µM, the TGI [25] was 11.9 µM and the GI50 [26] was 1.2 µM. For the same molecule, the TGI [26] was 11.5 µM, the GI50 [27] was 0.153 µM and the TGI [27] was 0.404 µM. It also gave a GI50 [28] of 0.496 µM, a TGI [28] of 13.2 µM and a GI50 [29] of 1.91 µM. The TGI [29] was 19.3 µM, the GI50 [30] was 0.614 µM and the TGI [30] was 14 µM. For the same molecule, the GI50 [31] was 0.38 µM, the TGI [31] was 11.6 µM and the GI50 [32] was 0.289 µM. It also gave a TGI [32] of 3.16 µM, a GI50 [33] of 0.394 µM and a TGI [33] of 5.9 µM. The GI50 [34] was 0.242 µM, the TGI [34] was 0.675 µM and the GI50 [35] was 0.692 µM. The TGI [35] was 19.3 µM, the GI50 [36] was 1.54 µM and the TGI [36] was 17.7 µM. For the same molecule, the GI50 [37] was 0.531 µM, the TGI [37] was 8.93 µM and the GI50 [38] was 0.379 µM. The TGI [38] was 14.1 µM, the GI50 [39] was 0.348 µM and the TGI [39] was 3.13 µM. For the same molecule, the GI50 [40] was 0.368 µM, the TGI [40] was 5.87 µM and the GI50 [41] was 0.643 µM. For the same molecule, the TGI [41] was 12.5 µM, the GI50 [42] was 0.362 µM and the TGI [42] was 10.6 µM. The GI50 [43] was 0.277 µM, the TGI [43] was 1.15 µM and the GI50 [44] was 0.435 µM. For the same molecule, the TGI [44] was 8.23 µM, the GI50 [45] was 1.12 µM and the TGI [45] was 16 µM. For the same molecule, the GI50 [46] was 0.333 µM, the TGI [46] was 1.32 µM and the GI50 [47] was 0.414 µM. The TGI [47] was 11.7 µM, the GI50 [48] was 0.635 µM and the TGI [48] was 11.5 µM. It also gave a GI50 [49] of 0.521 µM, a TGI [49] of 16 µM and a GI50 [50] of 0.194 µM. For the same molecule, the TGI [50] was 3.46 µM, the GI50 [51] was 0.236 µM and the TGI [51] was 4.09 µM. The GI50 [52] was 0.363 µM, the TGI [52] was 13.7 µM and the GI50 [53] was 0.238 µM. For the same molecule, the TGI [53] was 8.26 µM, the GI50 [54] was 0.794 µM and the TGI [54] was 14.8 µM. For the same molecule, the GI50 [55] was 0.413 µM, the TGI [55] was 11.4 µM and the GI50 [56] was 1.37 µM. It also gave a TGI [56] of 17.7 µM, a GI50 [57] of 0.426 µM and a TGI [57] of 5.49 µM. The GI50 [58] was 0.576 µM and the TGI [58] was 11.9 µM.
COc1ccc(N=Cc2c(O)ccc3c2oc2cc(Cl)c(O)c(Cl)c23)cc1 gave a GI50 [1] of 19.2 µM, a TGI [1] of 52 µM and a GI50 [2] of 14.5 µM. It also gave a TGI [2] of 28.5 µM, a GI50 [3] of 14.5 µM and a TGI [3] of 48.2 µM. The GI50 [4] was 6.22 µM, the TGI [4] was 44.4 µM and the GI50 [5] was 13.4 µM. The TGI [5] was > 100 µM, the GI50 [6] was 4.75 µM and the TGI [6] was 28.1 µM. It also gave a GI50 [7] of 4.5 µM, a TGI [7] of 31.8 µM and a GI50 [8] of 16 µM. The TGI [8] was 33.2 µM, the GI50 [9] was 18.9 µM and the TGI [9] was 45.9 µM. For the same molecule, the GI50 [10] was 10.7 µM, the TGI [10] was 38 µM and the GI50 [11] was 15 µM. The TGI [11] was 29.3 µM, the GI50 [12] was 21 µM and the TGI [12] was 56.9 µM. It also gave a GI50 [13] of 7.38 µM, a TGI [13] of 25.7 µM and a GI50 [14] of 13.2 µM. For the same molecule, the TGI [14] was 42.7 µM, the GI50 [15] was 14.3 µM and the TGI [15] was 33.5 µM. It also gave a GI50 [16] of 6.09 µM, a TGI [16] of 32.6 µM and a GI50 [17] of 4.45 µM. The TGI [17] was 23.1 µM, the GI50 [18] was 16.2 µM and the TGI [18] was 37.8 µM. The GI50 [19] was 14.7 µM, the TGI [19] was 43.3 µM and the GI50 [20] was 5.63 µM. The TGI [20] was 49.7 µM, the GI50 [21] was 7.91 µM and the TGI [21] was 21.3 µM. The GI50 [22] was 15.1 µM, the TGI [22] was 53.4 µM and the GI50 [23] was 20.9 µM. The TGI [23] was 61.2 µM, the GI50 [24] was 3.63 µM and the TGI [24] was 21.8 µM. For the same molecule, the GI50 [25] was 7.7 µM, the TGI [25] was 44.1 µM and the GI50 [26] was 14.7 µM. For the same molecule, the TGI [26] was 48.4 µM, the GI50 [27] was 11.6 µM and the TGI [27] was 43.2 µM. The GI50 [28] was 4.84 µM, the TGI [28] was 30 µM and the GI50 [29] was 13.7 µM. The TGI [29] was 41.7 µM, the GI50 [30] was 12.2 µM and the TGI [30] was 42.5 µM. It also gave a GI50 [31] of 12.7 µM, a TGI [31] of 33.9 µM and a GI50 [32] of 9.61 µM. For the same molecule, the TGI [32] was 28.2 µM, the GI50 [33] was 12.2 µM and the TGI [33] was 50.7 µM. For the same molecule, the GI50 [34] was 6.91 µM, the TGI [34] was 22.3 µM and the GI50 [35] was 16.3 µM. The TGI [35] was > 100 µM, the GI50 [36] was 17.5 µM and the TGI [36] was 38.9 µM. The GI50 [37] was 15 µM, the TGI [37] was 45.9 µM and the GI50 [38] was 14.8 µM. The TGI [38] was 57.3 µM, the GI50 [39] was 4.83 µM and the TGI [39] was 30.2 µM. It also gave a GI50 [40] of 14.2 µM, a TGI [40] of 31.4 µM and a GI50 [41] of 6.68 µM. For the same molecule, the TGI [41] was 29.6 µM, the GI50 [42] was 3.39 µM and the TGI [42] was 17.8 µM. The GI50 [43] was 7.03 µM, the TGI [43] was 30.4 µM and the GI50 [44] was 5.92 µM. The TGI [44] was 22.9 µM, the GI50 [45] was 15.9 µM and the TGI [45] was 40.4 µM. For the same molecule, the GI50 [46] was 10.5 µM, the TGI [46] was 27.7 µM and the GI50 [47] was 15.9 µM. For the same molecule, the TGI [47] was 49.5 µM, the GI50 [48] was 19.3 µM and the TGI [48] was 63.6 µM. The GI50 [49] was 13.9 µM, the TGI [49] was 79.8 µM and the GI50 [50] was 12.7 µM. It also gave a TGI [50] of 48.8 µM, a GI50 [51] of 10.9 µM and a TGI [51] of 51.7 µM. The GI50 [52] was 11.8 µM, the TGI [52] was 25.9 µM and the GI50 [53] was 7.65 µM. For the same molecule, the TGI [53] was 46.4 µM, the GI50 [54] was 20.3 µM and the TGI [54] was 48.3 µM. For the same molecule, the GI50 [55] was 5.39 µM, the TGI [55] was 34.9 µM and the GI50 [56] was 15.9 µM. It also gave a TGI [56] of 48.8 µM, a GI50 [57] of 10.3 µM and a TGI [57] of 33.7 µM. For the same molecule, the GI50 [58] was 5 µM and the TGI [58] was 26.6 µM.
